# Measurements: patent publication US20240415819A1, “MACROCYCLIC COMPOUNDS AS PROTEASOME SUBUNIT BETA TYPE-5 INHIBITORS” (Lead Discovery Center GmbH, priority 2021, published 2024)
# Legend:
# [1] = tested on: hPMBC; assay: Chymotrypsin-like ProteasomeGlo assay in hPBMC; format: cell-based; conditions: Homo sapiens; read-out: Pglo hPBMC
# In short: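 B cells isolated from human PBMC (buffy coats, density gradient, magnetic isolation). Cells treated with compound for 105 min at 37 °C, with staurosporine and DMSO included. Chymotrypsin-like proteasome activity read by luminescence with Suc-LLVY-Glo substrate to derive IC50.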
# [2] = target: T1, β5 subunit of the human immunoproteasome (IPS) (Homo sapiens, UniProt P28062); assay: β5 inhibition assay, human immunoproteasome (Suc-LLVY-AMC); format: biochemical; conditions: IC50 class, Suc-LLVY-AMC substrate
# T1 construct: purchased Boston Biochem E-370
# In short: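 Human immunoproteasome (1 nM final) was preincubated 10 min at RT with compound in 100 mM HEPES pH 7.5, 50 mM NaCl, 0.02% SDS, 1 mM DTT. Suc-LLVY-AMC (22.6 μM final) was then added for 4 h at RT in the dark. After stopping with 1 μM bortezomib, AMC fluorescence was read (ex 355/em 460 nm).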
Structure (SMILES),IC50 [1] [nM],IC50 [2] [nM]
"Cc1ccc2cc1CNC(=O)[C@H](CCc1ccccc1)NC(=O)[C@@H](NC(=O)[C@@H](C)c1ccccc1)CC(=O)N1CCCC(CCO2)C1 (stereo partly drawn) [Compound 81, (2S)-N-((9S,12S)-5^4-methyl-8,11,14-trioxo-9-phenethyl-4-oxa-7,10-diaza-1(3,1)-piperidina-5(1,3)-benzenacyclotetradecaphane-12-yl)-2-phenylpropanamide]",< 100,< 100
"COc1ccc(CC(=O)N[C@H]2CC(=O)N3CCCC(CCOc4ccc(C)c(c4)CNC(=O)[C@H](CCc4ccccc4)NC2=O)C3)cc1 (stereo partly drawn) [Compound 83, 2-(4-methoxyphenyl)-N-((9S,12S)-5^4-methyl-8,11,14-trioxo-9-phenethyl-4-oxa-7,10-diaza-1(3,1)-piperidina-5(1,3)-benzenacyclotetradecaphane-12-yl)acetamide]",< 100,< 100
"Cc1ccc2cc1CNC(=O)[C@H](CCc1ccccc1)NC(=O)[C@@H](NC(=O)C1(C)CCNCC1)CC(=O)N1CCCC(CCO2)C1 (stereo partly drawn) [Compound 136, 4-methyl-N-((9S,12S)-5^4-methyl-8,11,14-trioxo-9-phenethyl-4-oxa-7,10-diaza-1(3,1)-piperidina-5(1,3)-benzenacyclotetradecaphane-12-yl)piperidine-4-carboxamide]",< 100,< 100
"Cc1ccc2cc1CNC(=O)[C@H](CCc1ccccc1)NC(=O)[C@@H](NC(=O)Cc1cccc(N)c1)CC(=O)N1CCCC(CCO2)C1 (stereo partly drawn) [Compound 127, 2-(3-aminophenyl)-N-((9S,12S)-5^4-methyl-8,11,14-trioxo-9-phenethyl-4-oxa-7,10-diaza-1(3,1)-piperidina-5(1,3)-benzenacyclotetradecaphane-12-yl)acetamide]",< 100,< 100
"Cc1ccc2cc1CNC(=O)[C@H](CCc1ccccc1)NC(=O)[C@@H](NC(=O)CN1CCOCC1)CC(=O)N1CCCC(CCO2)C1 (stereo partly drawn) [Compound 88, N-((9S,12S)-5^4-methyl-8,11,14-trioxo-9-phenethyl-4-oxa-7,10-diaza-1(3,1)-piperidina-5(1,3)-benzenacyclotetradecaphane-12-yl)-2-morpholinoacetamide]",< 100,< 100
"Cc1ccc2cc1CNC(=O)[C@H](C)NC(=O)CCC(=O)N1CCCC(CCO2)C1 (stereo partly drawn) [Compound 78, (9S)-5^4,9-dimethyl-4-oxa-7,10-diaza-1(3,1)-piperidina-5(1,3)-benzenacyclotetradecaphane-8,11,14-trione]",500 to 1000,100 to 500
"Cc1ccc2cc1CNC(=O)[C@H](CCc1ccccc1)NC(=O)[C@@H](NC(=O)CN1CCNCC1)CC(=O)N1CCCC(CCO2)C1 (stereo partly drawn) [Compound 126, N-((9S,12S)-5^4-methyl-8,11,14-trioxo-9-phenethyl-4-oxa-7,10-diaza-1(3,1)-piperidina-5(1,3)-benzenacyclotetradecaphane-12-yl)-2-(piperazin-1-yl)acetamide]",< 100,< 100
"Cc1ccc2cc1CNC(=O)[C@H](CCc1ccccc1)NC(=O)[C@@H](N)CC(=O)N1CCCC(CCO2)C1 (stereo partly drawn) [Compound 8, (9S,12S)-12-amino-5^4-methyl-9-phenethyl-4-oxa-7,10-diaza-1(3,1)-piperidina-5(1,3)-benzenacyclotetradecaphane-8,11,14-trione]",100 to 500,< 100
"CNCCOCC(=O)N[C@H]1CC(=O)N2CCCC(CCOc3ccc(C)c(c3)CNC(=O)[C@H](CCc3ccccc3)NC1=O)C2 (stereo partly drawn) [Compound 130, N-((9S,12S)-5^4-methyl-8,11,14-trioxo-9-phenethyl-4-oxa-7,10-diaza-1(3,1)-piperidina-5(1,3)-benzenacyclotetradecaphane-12-yl)-2-(2-(methylamino)ethoxy)acetamide]",< 100,< 100
"Cc1ccc2cc1CNC(=O)[C@H](CCc1ccccc1)NC(=O)[C@@H](NC(=O)CN1CCCC1)CC(=O)N1CCCC(CCO2)C1 (stereo partly drawn) [Compound 89, N-((9S,12S)-5^4-methyl-8,11,14-trioxo-9-phenethyl-4-oxa-7,10-diaza-1(3,1)-piperidina-5(1,3)-benzenacyclotetradecaphane-12-yl)-2-(pyrrolidin-1-yl)acetamide]",< 100,< 100
"Cc1ccc2cc1CNC(=O)[C@H](CCc1ccccc1)NC(=O)[C@@H](NC(=O)c1n[nH]c3ccccc13)CC(=O)N1CCCC(CCO2)C1 (stereo partly drawn) [Compound 60, N-((9S,12S)-5^4-methyl-8,11,14-trioxo-9-phenethyl-4-oxa-7,10-diaza-1(3,1)-piperidina-5(1,3)-benzenacyclotetradecaphane-12-yl)-1H-indazole-3-carboxamide]",100 to 500,< 100

# The next lines start with the values.
IC50 [1] [nM],IC50 [2] [nM],Structure (SMILES)
< 100,< 100,"Cc1ccc2cc1CNC(=O)[C@H](CCc1ccccc1)NC(=O)[C@@H](NS(=O)(=O)Cc1ccccc1)CC(=O)N1CCCC(CCO2)C1 (stereo partly drawn) [Compound 216, N-((9S,12S)-5^4-methyl-8,11,14-trioxo-9-phenethyl-4-oxa-7,10-diaza-1(3,1)-piperidina-5(1,3)-benzenacyclotetradecaphane-12-yl)-1-phenylmethanesulfonamide]"
500 to 1000,500 to 1000,"CC(=O)N[C@H]1CCC(=O)N(C)CCCCOc2ccc(C)c(c2)CNC(=O)[C@H](CCc2ccccc2)NC1=O [Compound 282, N-((11S,14S)-1^4,7-dimethyl-8,12,15-trioxo-1^4-phenethyl-2-oxa-7,13,16-triaza-1(1,3)-benzenacycloheptadecaphane-11-yl)acetamide]"
500 to 1000,< 100,"CC(=O)N[C@H]1CCC(=O)N2CCCC(C2)Oc2ccc(C)c(c2)CNC(=O)[C@H](CCc2ccccc2)NC1=O (stereo partly drawn) [Compound 148, N-((7S,10S)-3^4-methyl-6,9,13-trioxo-7-phenethyl-2-oxa-5,8-diaza-1(3,1)-piperidina-3(1,3)-benzenacyclotridecaphane-10-yl)acetamide]"
< 100,< 100,"Cc1ccc2cc1CNC(=O)[C@H](CCc1ccccc1)NC(=O)[C@@H](NS(=O)(=O)CCc1ccccc1)CC(=O)N1CCCC(CCO2)C1 (stereo partly drawn) [Compound 217, N-((9S,12S)-5^4-methyl-8,11,14-trioxo-9-phenethyl-4-oxa-7,10-diaza-1(3,1)-piperidina-5(1,3)-benzenacyclotetradecaphane-12-yl)-2-phenylethane-1-sulfonamide]"
< 100,< 100,"C=CC(=O)N[C@H]1CC(=O)N2CCCC(CCOc3ccc(C)c(c3)CNC(=O)[C@H](CCc3ccccc3)NC1=O)C2 (stereo partly drawn) [Compound 181, N-((9S,12S)-5^4-methyl-8,11,14-trioxo-9-phenethyl-4-oxa-7,10-diaza-1(3,1)-piperidina-5(1,3)-benzenacyclotetradecaphane-12-yl)acrylamide]"
< 100,< 100,"Cc1ccc2cc1CNC(=O)[C@H](CCc1ccccc1)NC(=O)[C@@H](NC(=O)C1(N)CCOC1)CC(=O)N1CCCC(CCO2)C1 (stereo partly drawn) [Compound 159, 3-amino-N-((9S,12S)-5^4-methyl-8,11,14-trioxo-9-phenethyl-4-oxa-7,10-diaza-1(3,1)-piperidina-5(1,3)-benzenacyclotetradecaphane-12-yl)tetrahydrofuran-3-carboxamide]"
500 to 1000,100 to 500,"Cc1ccc2cc1CNC(=O)[C@@H](CCc1ccccc1)NC(=O)[C@@H](NC(=O)OCc1ccccc1)CC(=O)N1CCC[C@H](CCO2)C1 [Compound 289, benzyl ((13R,9R,12S)-5^4-methyl-8,11,14-trioxo-9-phenethyl-4-oxa-7,10-diaza-1(3,1)-piperidina-5(1,3)-benzenacyclotetradecaphane-12-yl)carbamate]"
< 100,< 100,"COCCOCCOCCOCCOCCC(=O)N[C@H]1CC(=O)N2CCCC(CCOc3ccc(C)c(c3)CNC(=O)[C@H](CCc3ccccc3)NC1=O)C2 (stereo partly drawn) [Compound 219, N-((9S,12S)-5^4-methyl-8,11,14-trioxo-9-phenethyl-4-oxa-7,10-diaza-1(3,1)-piperidina-5(1,3)-benzenacyclotetradecaphane-12-yl)-2,5,8,11,14-pentaoxaheptadecan-17-amide]"
< 100,< 100,"Cc1ccc2cc1CNC(=O)[C@H](CCc1ccccc1)NC(=O)[C@@H](NC(=O)CCc1ccc(Br)cc1)CC(=O)N1CCCC(CCO2)C1 (stereo partly drawn) [Compound 175, 3-(4-bromophenyl)-N-((9S,12S)-5^4-methyl-8,11,14-trioxo-9-phenethyl-4-oxa-7,10-diaza-1(3,1)-piperidina-5(1,3)-benzenacyclotetradecaphane-12-yl)propanamide]"
< 100,< 100,"Cc1nc2cc(CCC(=O)N[C@H]3CC(=O)N4CCCC(CCOc5ccc(C)c(c5)CNC(=O)[C@H](CCc5ccccc5)NC3=O)C4)ccc2[nH]1 (stereo partly drawn) [Compound 174, 3-(2-methyl-1H-benzo[d]imidazol-6-yl)-N-((9S,12S)-5^4-methyl-8,11,14-trioxo-9-phenethyl-4-oxa-7,10-diaza-1(3,1)-piperidina-5(1,3)-benzenacyclotetradecaphane-12-yl)propanamide]"
< 100,< 100,"Cc1ccc2cc1CNC(=O)[C@H](CCc1ccccc1)NC(=O)[C@@H](NC(=O)C(C)(C)CO)CC(=O)N1CCCC(CCO2)C1 (stereo partly drawn) [Compound 284, 3-hydroxy-2,2-dimethyl-N-((9S,12S)-5^4-methyl-8,11,14-trioxo-9-phenethyl-4-oxa-7,10-diaza-1(3,1)-piperidina-5(1,3)-benzenacyclotetradecaphane-12-yl)propanamide]"
< 100,< 100,"Cc1ccc2cc1CNC(=O)[C@H](CCc1ccccc1)NC(=O)[C@@H](NC(=O)[C@@H](N)Cc1ccccc1)CC(=O)N1CCCC(CCO2)C1 (stereo partly drawn) [Compound 179, (2R)-2-amino-N-((9S,12S)-5^4-methyl-8,11,14-trioxo-9-phenethyl-4-oxa-7,10-diaza-1(3,1)-piperidina-5(1,3)-benzenacyclotetradecaphane-12-yl)-3-phenylpropanamide-]"
